Drawing on ChEMBL document CHEMBL1158888, “New bioactive rosigenin analogues and aromatic polyketide metabolites from the freshwater aquatic fungus Massarina tunicata” (2003), this text covers zone of inhibition and Activity for seven compounds.

Active and inactive are the calls of the source. The calls are words filed in the database; no cut-off is given here.

For assay [1], the system named is Bacillus subtilis. Briefly: Antimicrobial activity against Bacillus subtilis ATCC 6051 at 200 ug/ml by standard disk assay. Type of assay: functional. To be noted: read-out: IZ.
The next assay relates to Staphylococcus aureus. Briefly: Antimicrobial activity against Staphylococcus aureus ATCC 29213 at 200 ug/ml by standard disk assay. Format: functional. As to conditions: read-out: IZ.
Assay [2] relates to Bacillus subtilis. Briefly: Antimicrobial activity against Bacillus subtilis ATCC 6051 at 200 ug/disk by standard disk assay.

Consider `C[C@H]1CC(=O)c2c(coc2-c2c(O)ccc3c2OC(C)(C)C=C3)[C@@H]1O` [MASSARININ B], for which the zone of inhibition at 200 µg/mL was found to be 23 mm with Bacillus subtilis [1] and 12 mm with Staphylococcus aureus.

`C=C1OC(=O)[C@]2([C@H](C)C=CC(=O)[C@H]2O)[C@H]1O` [MASSARIGENIN D]: in the assay on Bacillus subtilis [1], the zone of inhibition at 200 µg/mL is 14 mm. With `C=C1OC(=O)[C@]2([C@H](C)CCC(=O)[C@@H]2O)[C@H]1O`, in the assay with Bacillus subtilis [2], the result was inactive. As for `C=C1OC(=O)[C@]2([C@H](C)C=CC(=O)[C@@H]2O)[C@H]1O` [MASSARIGENIN C], in the assay with Bacillus subtilis [1], the zone of inhibition at 200 µg/mL came to 9 mm. As for `COc1c(C)cc(O)c(C(=O)c2c(O)ccc3c2OC(C)(C)C=C3)c1C=O` [MASSARININ A], the zone of inhibition at 200 µg/mL is 17 mm with Bacillus subtilis [1] and 7 mm with Staphylococcus aureus. As for `C=C1OC(=O)[C@]2([C@H](C)C=C[C@H](O)[C@@H]2O)[C@@H]1O` [MASSARIGENIN A], in the assay on Bacillus subtilis [1], the zone of inhibition at 200 µg/mL came to 11 mm.

For the compound `C#C[C@H](O)COc1ccc(C(=O)O)cc1`, the zone of inhibition at 200 µg/mL in the assay on Bacillus subtilis [1] was 15 mm.
